Reference: ChEMBL document CHEMBL3885861, “Open TG-GATES”

Organism: Rattus norvegicus
Assay: Open TG-GATES - Regimen: Single
Type: toxicity, organism-based, Sprague-Dawley
Design: regimen Single, gender Male, age 6 weeks
Conditions: in vivo, iv, route intravenous injection; for APTT / Bas / Eos / Fbg / Hb / Ht / Lym / MCH / MCHC / MCV / Mono / PT / Plat / RBC / Ret / WBC: tissue Blood; for KIDNEY_L / KIDNEY_R / KIDNEY_TOTAL: tissue Kidney; for LIVER: tissue Liver; for ALP / ALT / AST / BUN / CRE / Ca / Cl / DBIL / GLC / IP / K / LDH / Na / PL / RALB / TBIL / TC / TG / TP / gamma-GTP: tissue Plasma
[1] = 1000 mg/kg, 3 h, dose level Middle
[2] = 1000 mg/kg, 6 h, dose level Middle
[3] = 1000 mg/kg, 9 h, dose level Middle
[4] = 1000 mg/kg, 24 h, dose level Middle
[5] = 2000 mg/kg, 3 h, dose level High
[6] = 2000 mg/kg, 6 h, dose level High
[7] = 2000 mg/kg, 9 h, dose level High
[8] = 2000 mg/kg, 24 h, dose level High

## CC(=O)OCC1=C(C(=O)O)N2C(=O)[C@@H](NC(=O)Cc3cccs3)[C@H]2SC1 [CEPHALOTHIN]
[1]
  TERMINAL_BW: 212.6 g
  APTT: 22.3 s
  Bas: 0%
  Eos: 0.4%
  Fbg: 266.6 mg/dL
  Hb: 13.2 g/dL
  Ht: 38.5%
  Lym: 72%
  MCH: 21.3 pg
  MCHC: 34.3%
  MCV: 62 fL
  Mono: 3.2%
  PT: 16.3 s
  Plat: 116.5 x10_4/uL
  RBC: 622 x10_4/ul
  Ret: 5.8%
  WBC: 76.3 x10_2/uL
  KIDNEY_L: 0.9 g
  KIDNEY_R: 0.9 g
  KIDNEY_TOTAL: 1.9 g
  LIVER: 10 g
  ALP: 1462.8 IU/L
  ALT: 52.4 IU/L
  AST: 101 IU/L
  BUN: 12.6 mg/dL
  CRE: 0.2 mg/dL
  Ca: 10.8 mg/dL
  Cl: 105.2 meq/L
  DBIL: 0 mg/dL
  GLC: 173 mg/dL
  IP: 8.5 mg/dL
  K: 4.3 meq/L
  LDH: 207.6 IU/L
  Na: 141.8 meq/L
  PL: 141.2 mg/dL
  RALB: 2.9 g/dL
  TBIL: 0.02 mg/dL
  TC: 68.8 mg/dL
  TG: 132.8 mg/dL
  TP: 5.2 g/dL
  gamma-GTP: 1.2 IU/L
[2]
  TERMINAL_BW: 218.3 g
  APTT: 24.1 s
  Bas: 0%
  Eos: 1%
  Fbg: 281.6 mg/dL
  Hb: 13.1 g/dL
  Ht: 38.6%
  Lym: 76.4%
  MCH: 21.1 pg
  MCHC: 34%
  MCV: 62.1 fL
  Mono: 2.4%
  PT: 16.2 s
  Plat: 135.7 x10_4/uL
  RBC: 622 x10_4/ul
  Ret: 6.3%
  WBC: 78.7 x10_2/uL
  KIDNEY_L: 1 g
  KIDNEY_R: 1 g
  KIDNEY_TOTAL: 1.9 g
  LIVER: 9.4 g
  ALP: 1381.4 IU/L
  ALT: 39.2 IU/L
  AST: 91.4 IU/L
  BUN: 12.8 mg/dL
  CRE: 0.2 mg/dL
  Ca: 10.5 mg/dL
  Cl: 106.2 meq/L
  DBIL: 0.002 mg/dL
  GLC: 175.4 mg/dL
  IP: 8.9 mg/dL
  K: 4.5 meq/L
  LDH: 176 IU/L
  Na: 141.4 meq/L
  PL: 127.8 mg/dL
  RALB: 2.8 g/dL
  TBIL: 0.018 mg/dL
  TC: 61.6 mg/dL
  TG: 115.2 mg/dL
  TP: 5.2 g/dL
  gamma-GTP: 1.2 IU/L
[3]
  TERMINAL_BW: 213.7 g
  APTT: 22.5 s
  Bas: 0%
  Eos: 1%
  Fbg: 293.2 mg/dL
  Hb: 13 g/dL
  Ht: 38.2%
  Lym: 73.4%
  MCH: 20.9 pg
  MCHC: 34%
  MCV: 61.6 fL
  Mono: 2.2%
  PT: 16.1 s
  Plat: 128.3 x10_4/uL
  RBC: 620.4 x10_4/ul
  Ret: 6.8%
  WBC: 74.6 x10_2/uL
  KIDNEY_L: 1 g
  KIDNEY_R: 1 g
  KIDNEY_TOTAL: 1.9 g
  LIVER: 8.9 g
  ALP: 1218.6 IU/L
  ALT: 33.2 IU/L
  AST: 75.4 IU/L
  BUN: 11 mg/dL
  CRE: 0.2 mg/dL
  Ca: 10.5 mg/dL
  Cl: 107.2 meq/L
  DBIL: 0 mg/dL
  GLC: 176.6 mg/dL
  IP: 9.1 mg/dL
  K: 4.5 meq/L
  LDH: 150 IU/L
  Na: 141.6 meq/L
  PL: 138.8 mg/dL
  RALB: 2.9 g/dL
  TBIL: 0.018 mg/dL
  TC: 72 mg/dL
  TG: 90.2 mg/dL
  TP: 5.4 g/dL
  gamma-GTP: 1.6 IU/L
[4]
  TERMINAL_BW: 219.2 g
  APTT: 22.5 s
  Bas: 0%
  Eos: 1%
  Fbg: 309.8 mg/dL
  Hb: 13.5 g/dL
  Ht: 39.4%
  Lym: 81.4%
  MCH: 20.7 pg
  MCHC: 34.3%
  MCV: 60.5 fL
  Mono: 2.4%
  PT: 16.3 s
  Plat: 124.3 x10_4/uL
  RBC: 651.8 x10_4/ul
  Ret: 5.1%
  WBC: 73.5 x10_2/uL
  KIDNEY_L: 1 g
  KIDNEY_R: 1 g
  KIDNEY_TOTAL: 1.9 g
  LIVER: 9.5 g
  ALP: 1371.4 IU/L
  ALT: 48 IU/L
  AST: 76.8 IU/L
  BUN: 15.8 mg/dL
  CRE: 0.2 mg/dL
  Ca: 10.6 mg/dL
  Cl: 106.8 meq/L
  DBIL: 0 mg/dL
  GLC: 190.8 mg/dL
  IP: 6.7 mg/dL
  K: 4.2 meq/L
  LDH: 146.8 IU/L
  Na: 143 meq/L
  PL: 148.8 mg/dL
  RALB: 3.1 g/dL
  TBIL: 0.012 mg/dL
  TC: 80.6 mg/dL
  TG: 79.4 mg/dL
  TP: 5.7 g/dL
  gamma-GTP: 1.6 IU/L
[5]
  TERMINAL_BW: 214.8 g
  APTT: 23.6 s
  Bas: 0%
  Eos: 0.4%
  Fbg: 277.6 mg/dL
  Hb: 13.6 g/dL
  Ht: 39.4%
  Lym: 66.4%
  MCH: 21.1 pg
  MCHC: 34.5%
  MCV: 61.3 fL
  Mono: 3.6%
  PT: 16.6 s
  Plat: 131.7 x10_4/uL
  RBC: 644 x10_4/ul
  Ret: 6.1%
  WBC: 63.2 x10_2/uL
  KIDNEY_L: 0.9 g
  KIDNEY_R: 1 g
  KIDNEY_TOTAL: 1.9 g
  LIVER: 9.6 g
  ALP: 1568.4 IU/L
  ALT: 46.4 IU/L
  AST: 94.6 IU/L
  BUN: 12.2 mg/dL
  CRE: 0.2 mg/dL
  Ca: 10.7 mg/dL
  Cl: 104.4 meq/L
  DBIL: 0.002 mg/dL
  GLC: 173.2 mg/dL
  IP: 9.3 mg/dL
  K: 4.2 meq/L
  LDH: 214.4 IU/L
  Na: 141.8 meq/L
  PL: 136 mg/dL
  RALB: 2.9 g/dL
  TBIL: 0.016 mg/dL
  TC: 68.2 mg/dL
  TG: 79.8 mg/dL
  TP: 5.4 g/dL
  gamma-GTP: 1.2 IU/L
[6]
  TERMINAL_BW: 214.6 g
  APTT: 23 s
  Bas: 0%
  Eos: 0.4%
  Fbg: 279.2 mg/dL
  Hb: 13.4 g/dL
  Ht: 39.1%
  Lym: 67.4%
  MCH: 21 pg
  MCHC: 34.3%
  MCV: 61.1 fL
  Mono: 3%
  PT: 16.3 s
  Plat: 121.3 x10_4/uL
  RBC: 639.8 x10_4/ul
  Ret: 5.9%
  WBC: 81.2 x10_2/uL
  KIDNEY_L: 1 g
  KIDNEY_R: 1.1 g
  KIDNEY_TOTAL: 2.1 g
  LIVER: 9.2 g
  ALP: 1347.4 IU/L
  ALT: 42.6 IU/L
  AST: 95.8 IU/L
  BUN: 12 mg/dL
  CRE: 0.1 mg/dL
  Ca: 10.6 mg/dL
  Cl: 105 meq/L
  DBIL: 0.002 mg/dL
  GLC: 171.6 mg/dL
  IP: 9.4 mg/dL
  K: 4.4 meq/L
  LDH: 182.6 IU/L
  Na: 141.2 meq/L
  PL: 145 mg/dL
  RALB: 2.9 g/dL
  TBIL: 0.022 mg/dL
  TC: 73.6 mg/dL
  TG: 136.6 mg/dL
  TP: 5.3 g/dL
  gamma-GTP: 1.2 IU/L
[7]
  TERMINAL_BW: 210.5 g
  APTT: 21.8 s
  Bas: 0%
  Eos: 1%
  Fbg: 290.8 mg/dL
  Hb: 13.4 g/dL
  Ht: 39.2%
  Lym: 70.8%
  MCH: 21 pg
  MCHC: 34.2%
  MCV: 61.4 fL
  Mono: 2.8%
  PT: 16.3 s
  Plat: 122.1 x10_4/uL
  RBC: 638.8 x10_4/ul
  Ret: 5.8%
  WBC: 69.5 x10_2/uL
  KIDNEY_L: 1 g
  KIDNEY_R: 1 g
  KIDNEY_TOTAL: 2 g
  LIVER: 8.6 g
  ALP: 1382 IU/L
  ALT: 39.4 IU/L
  AST: 90 IU/L
  BUN: 10.4 mg/dL
  CRE: 0.1 mg/dL
  Ca: 10.5 mg/dL
  Cl: 106 meq/L
  DBIL: 0 mg/dL
  GLC: 176 mg/dL
  IP: 9.3 mg/dL
  K: 4.5 meq/L
  LDH: 162.6 IU/L
  Na: 141 meq/L
  PL: 134.4 mg/dL
  RALB: 2.9 g/dL
  TBIL: 0.028 mg/dL
  TC: 66.4 mg/dL
  TG: 101.2 mg/dL
  TP: 5.3 g/dL
  gamma-GTP: 1.2 IU/L
[8]
  TERMINAL_BW: 223.7 g
  APTT: 21.3 s
  Bas: 0%
  Eos: 0.8%
  Fbg: 339.2 mg/dL
  Hb: 13.5 g/dL
  Ht: 38.6%
  Lym: 83.6%
  MCH: 20.4 pg
  MCHC: 34.8%
  MCV: 58.4 fL
  Mono: 2.4%
  PT: 16.2 s
  Plat: 117.9 x10_4/uL
  RBC: 661.4 x10_4/ul
  Ret: 5.4%
  WBC: 77.7 x10_2/uL
  KIDNEY_L: 1 g
  KIDNEY_R: 1 g
  KIDNEY_TOTAL: 2 g
  LIVER: 9 g
  ALP: 1511.8 IU/L
  ALT: 44.8 IU/L
  AST: 78.6 IU/L
  BUN: 15.6 mg/dL
  CRE: 0.2 mg/dL
  Ca: 10.6 mg/dL
  Cl: 106 meq/L
  DBIL: 0.004 mg/dL
  GLC: 183 mg/dL
  IP: 7.3 mg/dL
  K: 4.4 meq/L
  LDH: 162 IU/L
  Na: 142.2 meq/L
  PL: 143.8 mg/dL
  RALB: 3.1 g/dL
  TBIL: 0.02 mg/dL
  TC: 74.6 mg/dL
  TG: 76 mg/dL
  TP: 5.7 g/dL
  gamma-GTP: 1.6 IU/L
